Results taken from ChEMBL document CHEMBL5576052, “Design, synthesis, and biological evaluation of new bis-benzylisoquinoline-based analogues as potential neuromuscular blocking agents” (Bioorg Med Chem Lett, 2024).

How the values were obtained:
Type in all cases: functional
Oryctolagus cuniculus [1] = assay: Neuromuscular blocking in rabbit model of propofol-induced anesthesia assessed as time duration of 75 to 90 percent recovery indices at 0.06 mg/kg of inductive dose with continuous infusion of compound measured for 2 hrs by train-of-four response method
Oryctolagus cuniculus [2] = assay: Neuromuscular blocking in rabbit model of propofol-induced anesthesia assessed as time duration of 25 to 75 percent recovery indices at 0.06 mg/kg of inductive dose with continuous infusion of compound measured for 0.5 hrs by train-of-four response method
Oryctolagus cuniculus [3] = assay: Neuromuscular blocking in rabbit model of propofol-induced anesthesia assessed as effective blocking time by measuring duration from administration to 25 percent recovery at 27.27 nmol/kg by train-of-four response method
Oryctolagus cuniculus [4] = assay: Neuromuscular blocking in rabbit model of propofol-induced anesthesia assessed as time duration of 25 to 90 percent recovery indices at 272.7 nmol/kg by train-of-four response method
Oryctolagus cuniculus [5] = assay: Neuromuscular blocking in rabbit model of propofol-induced anesthesia assessed as onset time at 272.7 nmol/kg by train-of-four response method
Oryctolagus cuniculus [6] = assay: Neuromuscular blocking in rabbit model of propofol-induced anesthesia assessed as time duration of 25 to 75 percent recovery indices at 27.27 nmol/kg by train-of-four response method
Oryctolagus cuniculus [7] = assay: Neuromuscular blocking in rabbit model of propofol-induced anesthesia assessed as time duration of 25 to 90 percent recovery indices at 0.06 mg/kg of inductive dose with continuous infusion of compound measured for 2 hrs by train-of-four response method
Oryctolagus cuniculus [8] = assay: Neuromuscular blocking in rabbit model of propofol-induced anesthesia assessed as time duration of 25 to 75 percent recovery indices at 272.7 nmol/kg by train-of-four response method
Oryctolagus cuniculus [9] = assay: Neuromuscular blocking in rabbit model of propofol-induced anesthesia assessed as time duration of 75 to 90 percent recovery indices at 0.06 mg/kg of inductive dose with continuous infusion of compound measured for 1 hr by train-of-four response method
Oryctolagus cuniculus [10] = assay: Neuromuscular blocking in rabbit model of propofol-induced anesthesia assessed as onset time at 27.27 nmol/kg by train-of-four response method
Oryctolagus cuniculus [11] = assay: Neuromuscular blocking in rabbit model of propofol-induced anesthesia assessed as maximal blockade at 27.27 nmol/kg by train-of-four response method relative to control
Oryctolagus cuniculus [12] = assay: Neuromuscular blocking in rabbit model of propofol-induced anesthesia assessed as effective blocking time by measuring duration from administration to 25 percent recovery at 272.7 nmol/kg by train-of-four response method
Oryctolagus cuniculus [13] = assay: Neuromuscular blocking in rabbit model of propofol-induced anesthesia assessed as time duration of 25 to 90 percent recovery indices at 0.06 mg/kg of inductive dose with continuous infusion of compound measured for 0.5 hrs by train-of-four response method
Oryctolagus cuniculus [14] = assay: Neuromuscular blocking in rabbit model of propofol-induced anesthesia assessed as time duration of 75 to 90 percent recovery indices at 0.06 mg/kg of inductive dose with continuous infusion of compound measured for 0.5 hrs by train-of-four response method
Oryctolagus cuniculus [15] = assay: Neuromuscular blocking in rabbit model of propofol-induced anesthesia assessed as duration of time for maximal blockade at 27.27 nmol/kg by train-of-four response method
Oryctolagus cuniculus [16] = assay: Neuromuscular blocking in rabbit model of propofol-induced anesthesia assessed as time duration of 25 to 90 percent recovery indices at 27.27 nmol/kg by train-of-four response method
Oryctolagus cuniculus [17] = assay: Neuromuscular blocking in rabbit model of propofol-induced anesthesia assessed as maximal blockade at 272.7 nmol/kg by train-of-four response method relative to control
Oryctolagus cuniculus [18] = assay: Neuromuscular blocking in rabbit model of propofol-induced anesthesia assessed as time duration of 25 to 75 percent recovery indices at 0.06 mg/kg of inductive dose with continuous infusion of compound measured for 1 hr by train-of-four response method
Oryctolagus cuniculus [19] = assay: Neuromuscular blocking in rabbit model of propofol-induced anesthesia assessed as time duration of 25 to 75 percent recovery indices at 0.06 mg/kg of inductive dose with continuous infusion of compound measured for 2 hrs by train-of-four response method
Oryctolagus cuniculus [20] = assay: Neuromuscular blocking in rabbit model of propofol-induced anesthesia assessed as duration of time for maximal blockade at 272.7 nmol/kg by train-of-four response method
Oryctolagus cuniculus [21] = assay: Neuromuscular blocking in rabbit model of propofol-induced anesthesia assessed as time duration of 25 to 90 percent recovery indices at 0.06 mg/kg of inductive dose with continuous infusion of compound measured for 1 hr by train-of-four response method
Oryctolagus cuniculus [22] = assay: Neuromuscular blocking in rabbit model of propofol-induced anesthesia assessed as time duration of 25 to 90 percent recovery indices at 0.33 mg/kg of inductive dose with continuous infusion of compound measured for 0.5 hrs by train-of-four response method
Oryctolagus cuniculus [23] = assay: Neuromuscular blocking in rabbit model of propofol-induced anesthesia assessed as time duration of 75 to 90 percent recovery indices at 0.33 mg/kg of inductive dose with continuous infusion of compound measured for 0.5 hrs by train-of-four response method
Oryctolagus cuniculus [24] = assay: Neuromuscular blocking in rabbit model of propofol-induced anesthesia assessed as time duration of 25 to 75 percent recovery indices at 0.33 mg/kg of inductive dose with continuous infusion of compound measured for 0.5 hrs by train-of-four response method

Q: Which Time (Oryctolagus cuniculus [1]) does the source give for `COc1cc2c(cc1OC)[C@@H](Cc1cc(OC)c(OC)c(OC)c1)[N@+](C)(CCCOC(=O)CC/C=C/CCC(=O)OCCC[N@+]1(C)CCc3cc(OC)c(OC)cc3[C@H]1Cc1cc(OC)c(OC)c(OC)c1)CC2.[Cl-].[Cl-]` here?
A: Its Time is 3.17 min.

Q: And the Time (Oryctolagus cuniculus [2])?
A: The Time was 7.13 min.

Q: What about the Time (Oryctolagus cuniculus [3]) of the same molecule?
A: Its Time is 5.58 min.

Q: What about the Time (Oryctolagus cuniculus [4]) of the same molecule?
A: Its Time is 13.92 min.

Q: And the Time (Oryctolagus cuniculus [5])?
A: Its Time is 0.67 min.

Q: What about the Time (Oryctolagus cuniculus [6]) of the same molecule?
A: The Time was 9.22 min.

Q: And the Time (Oryctolagus cuniculus [7])?
A: Its Time is 7.75 min.

Q: And the Time (Oryctolagus cuniculus [8])?
A: The Time was 11.25 min.

Q: What about the Time (Oryctolagus cuniculus [9]) of the same molecule?
A: Its Time is 2.67 min.

Q: What about the Time (Oryctolagus cuniculus [10]) of the same molecule?
A: The Time was 1.88 min.

Q: And the Emax at 0.02727 µmol/kg (Oryctolagus cuniculus [11])?
A: Its Emax at 0.02727 µmol/kg is 100%.

Q: And the Time (Oryctolagus cuniculus [12])?
A: The Time was 19.58 min.

Q: What about the Time (Oryctolagus cuniculus [13]) of the same molecule?
A: The Time was 10.73 min.

Q: And the Time (Oryctolagus cuniculus [14])?
A: Its Time is 3.6 min.

Q: And the Time (Oryctolagus cuniculus [15])?
A: The Time was 4.25 min.

Q: What about the Time (Oryctolagus cuniculus [16]) of the same molecule?
A: Its Time is 15.08 min.

Q: And the Emax at 0.2727 µmol/kg (Oryctolagus cuniculus [17])?
A: Its Emax at 0.2727 µmol/kg is 100%.

Q: What about the Time (Oryctolagus cuniculus [18]) of the same molecule?
A: The Time was 6.96 min.

Q: And the Time (Oryctolagus cuniculus [19])?
A: Its Time is 4.58 min.

Q: And the Time (Oryctolagus cuniculus [20])?
A: The Time was 14.67 min.

Q: And the Time (Oryctolagus cuniculus [21])?
A: Its Time is 9.63 min.

Q: How did the Time (Oryctolagus cuniculus [4]) turn out when `COc1cc2c(cc1OC)[C@@H](Cc1cc(OC)c(OC)c(OC)c1)[N+](C)(CCC(=O)OC/C=C\COC(=O)CC[N+]1(C)CCc3cc(OC)c(OC)cc3[C@H]1Cc1cc(OC)c(OC)c(OC)c1)CC2.O=S(=O)([O-])c1ccccc1.O=S(=O)([O-])c1ccccc1` (stereo partly drawn) was run?
A: Its Time is 10.25 min.

Q: What about the Time (Oryctolagus cuniculus [5]) of the same molecule?
A: Its Time is 1.67 min.

Q: What about the Time (Oryctolagus cuniculus [22]) of the same molecule?
A: Its Time is 11.17 min.

Q: And the Time (Oryctolagus cuniculus [8])?
A: Its Time is 7.5 min.

Q: What about the Time (Oryctolagus cuniculus [23]) of the same molecule?
A: Its Time is 3.17 min.

Q: What about the Time (Oryctolagus cuniculus [12]) of the same molecule?
A: The Time was 11.83 min.

Q: And the Emax at 0.2727 µmol/kg (Oryctolagus cuniculus [17])?
A: The Emax at 0.2727 µmol/kg was 100%.

Q: And the Time (Oryctolagus cuniculus [20])?
A: The Time was 8.25 min.

Q: What about the Time (Oryctolagus cuniculus [24]) of the same molecule?
A: The Time was 8 min.

Q: What does the source list for `COc1cc2c(cc1OC)[C@@H](Cc1cc(OC)c(OC)c(OC)c1)[N@@+](C)(CCCOC(=O)CC/C=C/CCC(=O)OCCC[N@+]1(C)CCc3cc(OC)c(OC)cc3[C@H]1Cc1cc(OC)c(OC)c(OC)c1)CC2.[Cl-].[Cl-]` (mixture of isomers)?
A: Time (Oryctolagus cuniculus [2]): 6.9 min; Time (Oryctolagus cuniculus [4]): 13.42 min; Time (Oryctolagus cuniculus [5]): 0.83 min; Time (Oryctolagus cuniculus [6]): 4.92 min; Time (Oryctolagus cuniculus [8]): 10.5 min; Time (Oryctolagus cuniculus [9]): 5.33 min; Time (Oryctolagus cuniculus [10]): 3.58 min; Emax at 0.02727 µmol/kg (Oryctolagus cuniculus [11]): 80%; Time (Oryctolagus cuniculus [12]): 24.5 min; Time (Oryctolagus cuniculus [13]): 11.1 min; Time (Oryctolagus cuniculus [14]): 4.2 min; Time (Oryctolagus cuniculus [15]): 1.92 min; Time (Oryctolagus cuniculus [16]): 8.92 min; Emax at 0.2727 µmol/kg (Oryctolagus cuniculus [17]): 100%; Time (Oryctolagus cuniculus [18]): 7.08 min; Time (Oryctolagus cuniculus [20]): 21.42 min; Time (Oryctolagus cuniculus [21]): 12.42 min

Q: With `COc1cc2c(cc1OC)[C@@H](Cc1cc(OC)c(OC)c(OC)c1)[N+](C)(CCCOC(=O)CC/C=C/CCC(=O)OCCC[N+]1(C)CCc3cc(OC)c(OC)cc3[C@H]1Cc1cc(OC)c(OC)c(OC)c1)CC2.[Cl-].[Cl-]` (stereo partly drawn) [MIVACURIUM CHLORIDE] as the molecule, how does the Time (Oryctolagus cuniculus [1]) read?
A: Its Time is 4.83 min.

Q: And the Time (Oryctolagus cuniculus [2])?
A: The Time was 8 min.

Q: What about the Time (Oryctolagus cuniculus [3]) of the same molecule?
A: Its Time is 7.92 min.

Q: What about the Time (Oryctolagus cuniculus [4]) of the same molecule?
A: The Time was 9.71 min.

Q: What about the Time (Oryctolagus cuniculus [5]) of the same molecule?
A: The Time was 0.79 min.

Q: What about the Time (Oryctolagus cuniculus [6]) of the same molecule?
A: The Time was 7.75 min.

Q: What about the Time (Oryctolagus cuniculus [7]) of the same molecule?
A: The Time was 9 min.

Q: And the Time (Oryctolagus cuniculus [8])?
A: Its Time is 6.54 min.

Q: What about the Time (Oryctolagus cuniculus [9]) of the same molecule?
A: Its Time is 3.29 min.

Q: What about the Time (Oryctolagus cuniculus [10]) of the same molecule?
A: The Time was 1.58 min.

Q: And the Emax at 0.02727 µmol/kg (Oryctolagus cuniculus [11])?
A: The Emax at 0.02727 µmol/kg was 100%.

Q: And the Time (Oryctolagus cuniculus [12])?
A: The Time was 18.57 min.

Q: And the Time (Oryctolagus cuniculus [13])?
A: The Time was 11.5 min.

Q: And the Time (Oryctolagus cuniculus [14])?
A: Its Time is 3.5 min.

Q: What about the Time (Oryctolagus cuniculus [15]) of the same molecule?
A: Its Time is 4.42 min.

Q: And the Time (Oryctolagus cuniculus [16])?
A: The Time was 11.42 min.

Q: And the Emax at 0.2727 µmol/kg (Oryctolagus cuniculus [17])?
A: Its Emax at 0.2727 µmol/kg is 100%.

Q: And the Time (Oryctolagus cuniculus [18])?
A: Its Time is 8.5 min.

Q: And the Time (Oryctolagus cuniculus [19])?
A: The Time was 4.92 min.

Q: And the Time (Oryctolagus cuniculus [20])?
A: The Time was 15.79 min.

Q: And the Time (Oryctolagus cuniculus [21])?
A: The Time was 11.79 min.
